Laboratory results: paper PMC9856672, “SGC-CAMKK2-1: A Chemical Probe for CAMKK2” (Cells, 2023)

Assays:
NDR2 = target: T1, NDR2 (Homo sapiens, UniProt Q9Y2H1); assay: KINOMEscan at 1 μM, NDR2; format: binding; conditions: 1000 nM, read-out: Percent Control
T1 construct: purchased Eurofins DiscoverX KINOMEscan
Excerpt: (§1) Supplement cells-12-00287-s001.zip/File S2. KinomeScan data for the CAMKK2 probe and negative control.xlsx, sheet "SGC-CAMKK2-1N" | column: Percent Control

PIM1 = target: T2, PIM1 (Homo sapiens, UniProt P11309); assay: KINOMEscan at 1 μM, PIM1; format: binding; conditions: 1000 nM, read-out: Percent Control
T2 construct: purchased Eurofins DiscoverX KINOMEscan
Excerpt: as §1

FLT3(K663Q) = target: T3, FLT3(K663Q) (Homo sapiens, UniProt P36888, K663Q); assay: KINOMEscan binding assay at 1 μM, FLT3(K663Q); conditions: Compound Concentration 1000 nM; read-out: Percent Control
T3 construct: purchased Eurofins DiscoverX KINOMEscan
Excerpt: as §1

YANK2 = target: T4, YANK2 (Homo sapiens, UniProt Q9NY57); assay: KINOMEscan binding assay at 1 μM, YANK2; conditions: Compound Concentration 1000 nM; read-out: Percent Control
T4 construct: purchased Eurofins DiscoverX KINOMEscan
T4 sequence (Q9NY57 whole entry): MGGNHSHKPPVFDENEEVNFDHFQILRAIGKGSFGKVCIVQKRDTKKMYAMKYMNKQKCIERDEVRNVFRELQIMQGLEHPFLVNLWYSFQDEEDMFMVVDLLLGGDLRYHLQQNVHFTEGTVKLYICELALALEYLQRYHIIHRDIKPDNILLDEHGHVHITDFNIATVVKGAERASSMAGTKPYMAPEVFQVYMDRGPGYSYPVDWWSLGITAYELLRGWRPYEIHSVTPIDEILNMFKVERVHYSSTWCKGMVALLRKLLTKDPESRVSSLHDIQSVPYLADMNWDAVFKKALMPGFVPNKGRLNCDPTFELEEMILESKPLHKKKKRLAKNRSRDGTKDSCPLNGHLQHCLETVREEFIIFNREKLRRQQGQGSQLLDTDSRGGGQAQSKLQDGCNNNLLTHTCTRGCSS
Excerpt: as §1

PRKCI = target: T5, PRKCI (Homo sapiens, UniProt P41743); assay: KINOMEscan at 1 μM, PRKCI; format: binding; conditions: 1000 nM, read-out: Percent Control
T5 construct: purchased Eurofins DiscoverX KINOMEscan
Excerpt: as §1

[1] = target: T6, RSK1(Kin.Dom.1-N-terminal) (Homo sapiens, UniProt Q15418); assay: KINOMEscan at 1 μM, RSK1(Kin.Dom.1-N-terminal); format: binding; conditions: 1000 nM, read-out: Percent Control
T6 construct: RSK1(Kin.Dom.1-N-terminal); purchased Eurofins DiscoverX KINOMEscan
Excerpt: as §1

RAF1 = target: T7, RAF1 (Homo sapiens, UniProt P04049); assay: KINOMEscan at 1 μM, RAF1; format: binding; conditions: 1000 nM, read-out: Percent Control
T7 construct: purchased Eurofins DiscoverX KINOMEscan
Excerpt: as §1

PIK3C2G = target: T8, PIK3C2G (Homo sapiens, UniProt O75747); assay: KINOMEscan binding assay at 1 μM, PIK3C2G; conditions: Compound Concentration 1000 nM; read-out: Percent Control
T8 construct: purchased Eurofins DiscoverX KINOMEscan
Excerpt: as §1

AMPK-alpha1 = target: T9, AMPK-alpha1 (Homo sapiens, UniProt Q13131); assay: KINOMEscan at 1 μM, AMPK-alpha1; format: binding; conditions: 1000 nM, read-out: Percent Control
T9 construct: purchased Eurofins DiscoverX KINOMEscan
Excerpt: as §1

EPHA2 = target: T10, EPHA2 (Homo sapiens, UniProt P29317); assay: KINOMEscan at 1 μM, EPHA2; format: binding; conditions: 1000 nM, read-out: Percent Control
T10 construct: purchased Eurofins DiscoverX KINOMEscan
Excerpt: as §1

TGFBR1 = target: T11, TGFBR1 (Homo sapiens, UniProt P36897); assay: KINOMEscan at 1 μM, TGFBR1; format: binding; conditions: 1000 nM, read-out: Percent Control
T11 construct: purchased Eurofins DiscoverX KINOMEscan
Excerpt: as §1

TRKA = target: T12, TRKA (Homo sapiens, UniProt P04629); assay: KINOMEscan at 1 μM, TRKA; format: binding; conditions: 1000 nM, read-out: Percent Control
T12 construct: purchased Eurofins DiscoverX KINOMEscan
Excerpt: as §1

TLK1 = target: T13, TLK1 (Homo sapiens, UniProt Q9UKI8); assay: KINOMEscan at 1 μM, TLK1; format: binding; conditions: 1000 nM, read-out: Percent Control
T13 construct: purchased Eurofins DiscoverX KINOMEscan
Excerpt: as §1

FLT3(N841I) = target: T14, FLT3(N841I) (Homo sapiens, UniProt P36888, N841I); assay: KINOMEscan binding assay at 1 μM, FLT3(N841I); conditions: Compound Concentration 1000 nM; read-out: Percent Control
T14 construct: purchased Eurofins DiscoverX KINOMEscan
Excerpt: as §1

TLK2 = target: T15, TLK2 (Homo sapiens, UniProt Q86UE8); assay: KINOMEscan at 1 μM, TLK2; format: binding; conditions: 1000 nM, read-out: Percent Control
T15 construct: purchased Eurofins DiscoverX KINOMEscan
Excerpt: as §1

DYRK2 = target: T16, DYRK2 (Homo sapiens, UniProt Q92630); assay: KINOMEscan 1 μM, DYRK2; format: binding; conditions: 1000 nM; Entrez DYRK2; read-out: Percent Control
T16 construct: purchased Eurofins DiscoverX KINOMEscan
Excerpt: (§2) Supplement cells-12-00287-s001.zip/File S2. KinomeScan data for the CAMKK2 probe and negative control.xlsx, sheet "SGC-CAMKK2-1" | column: Percent Control

FAK = target: T17, FAK (Homo sapiens, UniProt Q05397); assay: KINOMEscan 1 μM, FAK; format: binding; conditions: 1000 nM; Entrez PTK2; read-out: Percent Control
T17 construct: purchased Eurofins DiscoverX KINOMEscan
Excerpt: as §2

CDK8 = target: T18, CDK8 (Homo sapiens, UniProt P49336); assay: KINOMEscan 1 μM, CDK8; format: binding; conditions: 1000 nM; Entrez CDK8; read-out: Percent Control
T18 construct: purchased Eurofins DiscoverX KINOMEscan
Excerpt: as §2

PRKG1 = target: T19, PRKG1 (Homo sapiens, UniProt Q13976); assay: DiscoverX KINOMEscan binding assay at 1 μM, PRKG1; conditions: Compound Concentration 1000 nM, read-out: Percent Control
T19 construct: purchased Eurofins DiscoverX KINOMEscan
T19 sequence (Q13976 whole entry): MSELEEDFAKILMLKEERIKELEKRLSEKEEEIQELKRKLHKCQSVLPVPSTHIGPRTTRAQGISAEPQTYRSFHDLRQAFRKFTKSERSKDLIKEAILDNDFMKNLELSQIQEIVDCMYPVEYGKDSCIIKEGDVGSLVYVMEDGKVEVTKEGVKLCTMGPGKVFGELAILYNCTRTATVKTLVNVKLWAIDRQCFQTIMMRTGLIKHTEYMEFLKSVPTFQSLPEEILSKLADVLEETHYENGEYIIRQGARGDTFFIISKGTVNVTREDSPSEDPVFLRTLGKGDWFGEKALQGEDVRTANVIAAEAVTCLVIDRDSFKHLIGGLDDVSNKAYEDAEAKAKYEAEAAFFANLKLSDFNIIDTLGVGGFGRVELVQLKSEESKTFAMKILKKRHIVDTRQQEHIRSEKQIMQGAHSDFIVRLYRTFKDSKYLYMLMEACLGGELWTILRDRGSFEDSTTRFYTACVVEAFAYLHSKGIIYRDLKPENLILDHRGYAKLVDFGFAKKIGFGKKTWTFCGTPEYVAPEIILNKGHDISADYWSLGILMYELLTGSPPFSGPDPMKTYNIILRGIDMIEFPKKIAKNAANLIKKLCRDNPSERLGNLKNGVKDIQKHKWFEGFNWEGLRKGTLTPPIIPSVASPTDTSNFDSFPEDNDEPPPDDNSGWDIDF
Excerpt: as §2

PHKG1 = target: T20, PHKG1 (Homo sapiens, UniProt Q16816); assay: KINOMEscan 1 μM, PHKG1; format: binding; conditions: 1000 nM; Entrez PHKG1; read-out: Percent Control
T20 construct: purchased Eurofins DiscoverX KINOMEscan
Excerpt: as §2

FGFR3(G697C) = target: T21, FGFR3(G697C) (Homo sapiens, UniProt P22607, G697C); assay: KINOMEscan 1 μM, FGFR3(G697C); format: binding; conditions: 1000 nM; Entrez FGFR3; read-out: Percent Control
T21 construct: purchased Eurofins DiscoverX KINOMEscan
Excerpt: as §2

ERK8 = target: T22, ERK8 (Homo sapiens, UniProt Q8TD08); assay: KINOMEscan 1 μM, ERK8; format: binding; conditions: 1000 nM; Entrez MAPK15; read-out: Percent Control
T22 construct: purchased Eurofins DiscoverX KINOMEscan
T22 sequence (Q8TD08 whole entry): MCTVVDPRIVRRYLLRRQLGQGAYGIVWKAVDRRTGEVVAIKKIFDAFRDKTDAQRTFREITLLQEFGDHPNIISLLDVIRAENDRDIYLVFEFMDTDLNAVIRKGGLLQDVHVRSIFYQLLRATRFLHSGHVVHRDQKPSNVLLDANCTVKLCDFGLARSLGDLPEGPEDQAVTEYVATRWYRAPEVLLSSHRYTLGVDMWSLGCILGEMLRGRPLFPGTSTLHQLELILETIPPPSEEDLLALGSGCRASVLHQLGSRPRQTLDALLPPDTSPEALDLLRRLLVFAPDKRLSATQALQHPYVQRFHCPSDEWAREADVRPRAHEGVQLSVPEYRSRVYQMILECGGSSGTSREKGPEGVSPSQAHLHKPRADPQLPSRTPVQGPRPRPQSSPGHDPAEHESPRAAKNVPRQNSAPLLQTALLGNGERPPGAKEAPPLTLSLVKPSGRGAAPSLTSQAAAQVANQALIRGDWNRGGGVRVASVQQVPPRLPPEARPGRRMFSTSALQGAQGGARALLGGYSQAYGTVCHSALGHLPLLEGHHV
Excerpt: as §2

AMPK-alpha2 = target: T23, AMPK-alpha2 (Homo sapiens, UniProt P54646); assay: KINOMEscan 1 μM, AMPK-alpha2; format: binding; conditions: 1000 nM; Entrez PRKAA2; read-out: Percent Control
T23 construct: purchased Eurofins DiscoverX KINOMEscan
Excerpt: as §2

CDK2 = target: T24, CDK2 (Homo sapiens, UniProt P24941); assay: KINOMEscan 1 μM, CDK2; format: binding; conditions: 1000 nM; Entrez CDK2; read-out: Percent Control
T24 construct: purchased Eurofins DiscoverX KINOMEscan
Excerpt: as §2

CDK7 = target: T25, CDK7 (Homo sapiens, UniProt P50613); assay: KINOMEscan 1 μM, CDK7; format: binding; conditions: 1000 nM; Entrez CDK7; read-out: Percent Control
T25 construct: purchased Eurofins DiscoverX KINOMEscan
T25 sequence (P50613 whole entry): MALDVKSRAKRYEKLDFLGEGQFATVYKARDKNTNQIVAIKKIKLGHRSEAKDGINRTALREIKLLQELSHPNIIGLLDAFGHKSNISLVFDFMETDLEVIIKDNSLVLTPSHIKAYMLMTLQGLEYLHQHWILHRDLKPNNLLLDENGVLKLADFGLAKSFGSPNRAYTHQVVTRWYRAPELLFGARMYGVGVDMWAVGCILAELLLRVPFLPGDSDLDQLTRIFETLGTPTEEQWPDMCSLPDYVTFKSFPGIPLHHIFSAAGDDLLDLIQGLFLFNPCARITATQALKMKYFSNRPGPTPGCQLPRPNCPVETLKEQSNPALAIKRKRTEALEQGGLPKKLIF
Excerpt: as §2

TRPM6 = target: T26, TRPM6 (Homo sapiens, UniProt Q9BX84); assay: DiscoverX KINOMEscan binding assay at 1 μM, TRPM6; conditions: Compound Concentration 1000 nM, read-out: Percent Control
T26 construct: purchased Eurofins DiscoverX KINOMEscan
T26 sequence (Q9BX84 whole entry): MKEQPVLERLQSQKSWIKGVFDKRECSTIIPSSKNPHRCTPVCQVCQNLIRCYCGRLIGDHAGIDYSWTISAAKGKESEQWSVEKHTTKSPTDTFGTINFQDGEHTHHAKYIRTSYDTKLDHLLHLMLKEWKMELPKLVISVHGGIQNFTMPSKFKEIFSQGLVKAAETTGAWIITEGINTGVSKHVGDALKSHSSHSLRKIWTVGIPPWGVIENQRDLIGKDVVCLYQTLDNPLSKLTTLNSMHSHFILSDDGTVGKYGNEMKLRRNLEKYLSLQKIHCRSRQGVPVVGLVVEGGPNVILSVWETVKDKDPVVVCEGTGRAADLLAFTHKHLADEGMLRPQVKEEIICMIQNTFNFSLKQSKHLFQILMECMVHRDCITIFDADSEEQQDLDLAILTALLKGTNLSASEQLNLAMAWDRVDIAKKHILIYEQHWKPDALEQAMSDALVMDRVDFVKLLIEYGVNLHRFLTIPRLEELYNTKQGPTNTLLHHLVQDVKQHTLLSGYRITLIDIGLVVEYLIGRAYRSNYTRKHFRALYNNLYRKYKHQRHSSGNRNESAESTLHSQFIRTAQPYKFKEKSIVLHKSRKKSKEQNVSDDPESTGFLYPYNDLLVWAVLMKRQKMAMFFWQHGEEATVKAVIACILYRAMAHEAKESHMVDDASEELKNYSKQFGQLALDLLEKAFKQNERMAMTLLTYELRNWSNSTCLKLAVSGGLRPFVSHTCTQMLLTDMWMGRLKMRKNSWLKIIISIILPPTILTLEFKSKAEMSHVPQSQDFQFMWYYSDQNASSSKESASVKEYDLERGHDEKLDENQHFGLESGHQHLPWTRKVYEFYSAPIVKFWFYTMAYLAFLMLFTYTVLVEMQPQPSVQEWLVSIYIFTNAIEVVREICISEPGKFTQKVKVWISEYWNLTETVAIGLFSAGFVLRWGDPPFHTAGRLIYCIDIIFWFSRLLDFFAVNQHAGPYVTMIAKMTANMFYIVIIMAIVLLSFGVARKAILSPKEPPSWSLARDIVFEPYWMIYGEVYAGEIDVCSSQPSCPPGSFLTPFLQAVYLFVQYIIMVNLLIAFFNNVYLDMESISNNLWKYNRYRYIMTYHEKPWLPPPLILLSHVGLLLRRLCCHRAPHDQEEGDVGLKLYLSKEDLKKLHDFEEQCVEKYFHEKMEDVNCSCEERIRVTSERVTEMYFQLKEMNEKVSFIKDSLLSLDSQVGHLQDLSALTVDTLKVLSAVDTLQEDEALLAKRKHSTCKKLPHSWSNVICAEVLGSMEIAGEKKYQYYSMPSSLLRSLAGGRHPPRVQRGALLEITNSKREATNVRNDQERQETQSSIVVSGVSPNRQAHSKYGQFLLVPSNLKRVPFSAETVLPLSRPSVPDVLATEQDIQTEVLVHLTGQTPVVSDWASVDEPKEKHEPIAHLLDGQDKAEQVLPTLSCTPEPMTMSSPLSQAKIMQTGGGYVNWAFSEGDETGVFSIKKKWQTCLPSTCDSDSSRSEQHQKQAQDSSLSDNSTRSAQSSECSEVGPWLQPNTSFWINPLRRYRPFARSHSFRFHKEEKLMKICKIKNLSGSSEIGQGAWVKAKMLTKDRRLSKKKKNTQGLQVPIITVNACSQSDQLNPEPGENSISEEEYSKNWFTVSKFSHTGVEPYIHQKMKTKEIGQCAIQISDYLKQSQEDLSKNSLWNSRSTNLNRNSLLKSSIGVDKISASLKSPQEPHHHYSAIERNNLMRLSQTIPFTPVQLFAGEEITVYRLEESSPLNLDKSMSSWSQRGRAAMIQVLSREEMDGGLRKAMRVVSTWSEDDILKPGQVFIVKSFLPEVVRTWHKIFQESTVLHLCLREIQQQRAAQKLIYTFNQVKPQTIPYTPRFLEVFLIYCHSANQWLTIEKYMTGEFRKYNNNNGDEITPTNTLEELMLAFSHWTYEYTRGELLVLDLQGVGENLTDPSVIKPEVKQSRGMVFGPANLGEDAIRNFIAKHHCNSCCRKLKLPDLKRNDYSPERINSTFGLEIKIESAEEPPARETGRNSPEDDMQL
Excerpt: as §2

PRP4 = target: T27, PRP4 (Homo sapiens, UniProt Q13523); assay: DiscoverX KINOMEscan binding assay at 1 μM, PRP4; conditions: PRP4 (PRPF4B); Compound Concentration 1000 nM; read-out: Percent Control
T27 construct: purchased Eurofins DiscoverX KINOMEscan
Excerpt: as §2

DAPK1 = target: T28, DAPK1 (Homo sapiens, UniProt P53355); assay: KINOMEscan 1 μM, DAPK1; format: binding; conditions: 1000 nM; Entrez DAPK1; read-out: Percent Control
T28 construct: purchased Eurofins DiscoverX KINOMEscan
Excerpt: as §2

CSNK1D = target: T29, CSNK1D (Homo sapiens, UniProt P48730); assay: KINOMEscan 1 μM, CSNK1D; format: binding; conditions: 1000 nM; Entrez CSNK1D; read-out: Percent Control
T29 construct: purchased Eurofins DiscoverX KINOMEscan
Excerpt: as §2

AKT2 = target: T30, AKT2 (Homo sapiens, UniProt P31751); assay: KINOMEscan 1 μM, AKT2; format: binding; conditions: 1000 nM; Entrez AKT2; read-out: Percent Control
T30 construct: purchased Eurofins DiscoverX KINOMEscan
Excerpt: as §2

CDK9 = target: T31, CDK9 (Homo sapiens, UniProt P50750); assay: KINOMEscan 1 μM, CDK9; format: binding; conditions: 1000 nM; Entrez CDK9; read-out: Percent Control
T31 construct: purchased Eurofins DiscoverX KINOMEscan
T31 sequence (P50750 whole entry): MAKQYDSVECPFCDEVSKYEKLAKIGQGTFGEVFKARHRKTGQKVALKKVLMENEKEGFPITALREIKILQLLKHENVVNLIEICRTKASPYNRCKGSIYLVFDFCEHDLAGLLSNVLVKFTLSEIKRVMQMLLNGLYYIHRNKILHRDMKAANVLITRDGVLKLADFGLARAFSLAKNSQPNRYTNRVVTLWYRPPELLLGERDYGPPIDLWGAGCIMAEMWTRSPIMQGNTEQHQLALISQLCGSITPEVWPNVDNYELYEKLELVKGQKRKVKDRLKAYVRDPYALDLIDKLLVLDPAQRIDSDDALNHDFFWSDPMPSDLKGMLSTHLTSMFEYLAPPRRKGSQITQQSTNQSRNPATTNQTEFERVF
Excerpt: as §2

PKNB(M.tuberculosis) = target: T32, PKNB(M.tuberculosis) (Mycobacterium tuberculosis, UniProt P9WI81); assay: KINOMEscan 1 μM, PKNB(M.tuberculosis); format: binding; conditions: 1000 nM; Entrez pknB; read-out: Percent Control
T32 construct: purchased Eurofins DiscoverX KINOMEscan
Excerpt: as §2

ALK(L1196M) = target: T33, ALK(L1196M) (Homo sapiens, UniProt Q9UM73, L1196M); assay: KINOMEscan 1 μM, ALK(L1196M); format: binding; conditions: 1000 nM; Entrez ALK; read-out: Percent Control
T33 construct: purchased Eurofins DiscoverX KINOMEscan
Excerpt: as §2

T1 sequence (Q9Y2H1 whole entry): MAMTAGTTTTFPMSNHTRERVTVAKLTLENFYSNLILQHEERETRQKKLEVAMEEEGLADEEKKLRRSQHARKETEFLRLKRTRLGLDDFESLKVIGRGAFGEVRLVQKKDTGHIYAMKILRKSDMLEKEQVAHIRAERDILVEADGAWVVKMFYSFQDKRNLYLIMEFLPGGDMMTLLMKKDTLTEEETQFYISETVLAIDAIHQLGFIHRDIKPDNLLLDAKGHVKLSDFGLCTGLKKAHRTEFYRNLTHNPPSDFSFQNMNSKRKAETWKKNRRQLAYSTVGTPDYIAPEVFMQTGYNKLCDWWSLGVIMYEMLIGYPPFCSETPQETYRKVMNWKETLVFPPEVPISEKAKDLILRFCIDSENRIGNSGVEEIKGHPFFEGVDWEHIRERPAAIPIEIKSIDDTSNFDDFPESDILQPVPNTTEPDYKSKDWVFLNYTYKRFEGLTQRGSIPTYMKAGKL

Structure (SMILES): O=C(O)c1ccc(-c2coc3ncc(-c4ccccc4)cc23)cc1Cl [SGC-CAMKK2-1N (UNC-YL-83)]
- remaining binding at 1 µM (NDR2): 76%
- remaining binding at 1 µM (PIM1): 75%
- remaining binding at 1 µM (FLT3(K663Q)): 100%
- remaining binding at 1 µM (YANK2): 100%
- remaining binding at 1 µM (PRKCI): 79%
- remaining binding at 1 µM [1]: 99%
- remaining binding at 1 µM (RAF1): 79%
- remaining binding at 1 µM (PIK3C2G): 100%
- remaining binding at 1 µM (AMPK-alpha1): 100%
- remaining binding at 1 µM (EPHA2): 76%
- remaining binding at 1 µM (TGFBR1): 80%
- remaining binding at 1 µM (TRKA): 38%
- remaining binding at 1 µM (TLK1): 92%
- remaining binding at 1 µM (FLT3(N841I)): 100%
- remaining binding at 1 µM (TLK2): 77%

Structure (SMILES): Cc1cccc(-c2cnc3occ(-c4ccc(C(=O)O)c(C5CCCC5)c4)c3c2)c1 [SGC-CAMKK2-1 (YL-36)]
- remaining binding at 1 µM (DYRK2): 69%
- remaining binding at 1 µM (FAK): 92%
- remaining binding at 1 µM (CDK8): 72%
- remaining binding at 1 µM (PRKG1): 100%
- remaining binding at 1 µM (PHKG1): 80%
- remaining binding at 1 µM (FGFR3(G697C)): 100%
- remaining binding at 1 µM (ERK8): 100%
- remaining binding at 1 µM (AMPK-alpha2): 100%
- remaining binding at 1 µM (CDK2): 100%
- remaining binding at 1 µM (CDK7): 92%
- remaining binding at 1 µM (TRPM6): 100%
- remaining binding at 1 µM (PRP4): 100%
- remaining binding at 1 µM (DAPK1): 100%
- remaining binding at 1 µM (CSNK1D): 100%
- remaining binding at 1 µM (AKT2): 100%
- remaining binding at 1 µM (CDK9): 93%
- remaining binding at 1 µM (PKNB(M.tuberculosis)): 90%
- remaining binding at 1 µM (ALK(L1196M)): 96%
